From patent publication US10829520B2, “Beta-hairpin peptidomimetics” (POLYPHOR AG, priority 2015, dated 2020)
Where a SMILES comes first, the peptide text is derived from it. Bridges are numbered along the chain shown (N, C = ends). [ ]: non-standard residue; d: D form. dHyp = O=C(O)[C@H]1C[C@H](O)CN1; Pen = CC(C)(S)[C@H](N)C(=O)O; Tle = CC(C)(C)[C@H](N)C(=O)O; NMeC = CN[C@@H](CS)C(=O)O; dDab = NCC[C@@H](N)C(=O)O; Nle = CCCC[C@H](N)C(=O)O; Orn = NCCC[C@H](N)C(=O)O; Dab = NCC[C@H](N)C(=O)O

Legend:
Assay type in all cases: cell-based
[1] = test system: Acinetobacter baumannii 872842; conditions: 872842
[2] = test system: Acinetobacter baumannii DSM 30008; conditions: DSM 30008
How it was run: (§1)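 Peptide stocks (1 mg/mL, water) were diluted two-fold into MH-II broth with 0.002% P-80 and mixed with approx. 10^6 CFU/mL bacteria. Plates were read visually after 18-20 hours at 35° C, with MIC expressed in μg/mL per CLSI.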

Escherichia coli 926415 = conditions: 926415
[3] = test system: Escherichia coli ATCC 25922; conditions: ATCC 25922
How it was run: as §1

[4] = test system: Klebsiella pneumoniae 968733; conditions: 968733
[5] = test system: Klebsiella pneumoniae SSI #3010; conditions: SSI #3010
How it was run: as §1

[6] = test system: Pseudomonas aeruginosa ATCC 27853; conditions: ATCC 27853
How it was run: as §1

[7] = test system: human red blood cells (hRBC); assay: Hemolysis of human red blood cells; conditions: red cells of human, 1 h, 100 μg/mL
How it was run: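 hRBC washed 3× PBS; 20% v/v, ~0.9×10^9 cells/mL final. Peptide 100 μg/mL, 1 h, 37° C., 300 rpm. Spin, supernatant diluted 8×, OD540. 0% = PBS + 0.001% acetic acid; 100% = 2.5% Triton X-100. % hemolysis = OD540 peptide/OD540 full lysis × 100.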

CCCC[C@@H]1NC(=O)[C@@H]2CCCN2C(=O)[C@H]2CCCN2C(=O)[C@H](CO)NC(=O)[C@H](CO)NC(=O)[C@H](C(C)(C)C)NC(=O)[C@H](CCN)NC(=O)[C@H](Cc2c[nH]c3ccccc23)NC(=O)[C@@H](N)CSSC[C@@H](C(=O)N[C@@H](Cc2ccc(O)cc2)C(=O)N[C@H](CCN)C(=O)N[C@H]2CCNC(=O)[C@H]([C@@H](C)O)NC(=O)[C@H](CCN)NC(=O)[C@H](CCN)NC(=O)[C@H](CC(C)C)NC(=O)[C@@H](Cc3ccccc3)NC(=O)[C@H](CCN)NC2=O)NC(=O)[C@H](CCCN)NC(=O)[C@H](CCN)NC(=O)[C@H](Cc2ccc(O)cc2)NC(=O)[C@H](CO)NC1=O [Ex. 201] (H-CW[Dab][Tle]SS[dP]P[Nle]SY[Dab][Orn]CY[dDab][Dab][Dab][dF]L[Dab][Dab]T; disulfide 1-14; lactam 17-C)
Acinetobacter baumannii 872842 MIC [1]: 0.5 µg/mL
Acinetobacter baumannii DSM 30008 MIC [2]: 1 µg/mL
Escherichia coli 926415 MIC (Escherichia coli 926415): 0.5 µg/mL
Escherichia coli ATCC 25922 MIC [3]: 0.25 µg/mL
Klebsiella pneumoniae 968733 MIC [4]: 8 µg/mL
Klebsiella pneumoniae SSI #3010 MIC [5]: 1 µg/mL
Pseudomonas aeruginosa ATCC 27853 MIC [6]: 1 µg/mL
Hemolysis at 100 μg/mL [7]: <1%

CCCC[C@@H]1NC(=O)[C@@H]2CCCN2C(=O)[C@H]2CCCN2C(=O)[C@H](CO)NC(=O)[C@H](CO)NC(=O)[C@H](C(C)(C)C)NC(=O)[C@H](CCN)NC(=O)[C@H](Cc2c[nH]c3ccccc23)NC(=O)[C@@H](N)CSSC[C@@H](C(=O)N[C@H](Cc2c[nH]c3ccccc23)C(=O)N[C@@H](CCN)C(=O)N[C@H]2CCNC(=O)[C@H]([C@@H](C)O)NC(=O)[C@H](CCN)NC(=O)[C@H](CCN)NC(=O)[C@H](CC(C)C)NC(=O)[C@@H](Cc3ccccc3)NC(=O)[C@H](CCN)NC2=O)NC(=O)[C@H](CCCN)NC(=O)[C@H](CCN)NC(=O)[C@H](Cc2ccc(O)cc2)NC(=O)[C@H](CO)NC1=O [Ex. 202] (H-CW[Dab][Tle]SS[dP]P[Nle]SY[Dab][Orn]C[dW][Dab][Dab][Dab][dF]L[Dab][Dab]T; disulfide 1-14; lactam 17-C)
Acinetobacter baumannii 872842 MIC [1]: 0.5 µg/mL
Acinetobacter baumannii DSM 30008 MIC [2]: 1 µg/mL
Escherichia coli 926415 MIC (Escherichia coli 926415): 0.5 µg/mL
Escherichia coli ATCC 25922 MIC [3]: 0.25 µg/mL
Klebsiella pneumoniae 968733 MIC [4]: 2 µg/mL
Klebsiella pneumoniae SSI #3010 MIC [5]: 1 µg/mL
Pseudomonas aeruginosa ATCC 27853 MIC [6]: 1 µg/mL
Hemolysis at 100 μg/mL [7]: 2%

CCCC[C@@H]1NC(=O)[C@@H]2CCCN2C(=O)[C@H]2CCCN2C(=O)[C@H](CO)NC(=O)[C@H](CO)NC(=O)[C@H](C(C)(C)C)NC(=O)[C@H](CCN)NC(=O)[C@H](Cc2c[nH]c3ccccc23)NC(=O)[C@@H](N)CSSC[C@@H](C(=O)N[C@@H](CCC(N)=O)C(=O)N[C@H](CCN)C(=O)N[C@H]2CCNC(=O)[C@H]([C@@H](C)O)NC(=O)[C@H](CCN)NC(=O)[C@H](CCN)NC(=O)[C@H](CC(C)C)NC(=O)[C@@H](Cc3ccccc3)NC(=O)[C@H](CCN)NC2=O)NC(=O)[C@H](CCCN)NC(=O)[C@H](CCN)NC(=O)[C@H](Cc2ccc(O)cc2)NC(=O)[C@H](CO)NC1=O [Ex. 203] (H-CW[Dab][Tle]SS[dP]P[Nle]SY[Dab][Orn]CQ[dDab][Dab][Dab][dF]L[Dab][Dab]T; disulfide 1-14; lactam 17-C)
Acinetobacter baumannii 872842 MIC [1]: 0.5 µg/mL
Acinetobacter baumannii DSM 30008 MIC [2]: 2 µg/mL
Escherichia coli 926415 MIC (Escherichia coli 926415): 0.25 µg/mL
Escherichia coli ATCC 25922 MIC [3]: 0.5 µg/mL
Klebsiella pneumoniae 968733 MIC [4]: 4 µg/mL
Klebsiella pneumoniae SSI #3010 MIC [5]: 1 µg/mL
Pseudomonas aeruginosa ATCC 27853 MIC [6]: 1 µg/mL
Hemolysis at 100 μg/mL [7]: <1%

CCCC[C@@H]1NC(=O)[C@@H]2CCCN2C(=O)[C@H]2CCCN2C(=O)[C@H](CO)NC(=O)[C@H](CO)NC(=O)[C@H](C(C)(C)C)NC(=O)[C@H](CCN)NC(=O)[C@H](Cc2c[nH]c3ccccc23)NC(=O)[C@@H](N)CSSC[C@@H](C(=O)N[C@@H](C(=O)N[C@H](CCN)C(=O)N[C@H]2CCNC(=O)[C@H]([C@@H](C)O)NC(=O)[C@H](CCN)NC(=O)[C@H](CCN)NC(=O)[C@H](CC(C)C)NC(=O)[C@@H](Cc3ccccc3)NC(=O)[C@H](CCN)NC2=O)[C@H](C)O)NC(=O)[C@H](CCCN)NC(=O)[C@H](CCN)NC(=O)[C@H](Cc2ccc(O)cc2)NC(=O)[C@H](CO)NC1=O [Ex. 204] (H-CW[Dab][Tle]SS[dP]P[Nle]SY[Dab][Orn]C[dT][dDab][Dab][Dab][dF]L[Dab][Dab]T; disulfide 1-14; lactam 17-C)
Acinetobacter baumannii 872842 MIC [1]: 0.25 µg/mL
Acinetobacter baumannii DSM 30008 MIC [2]: 0.5 µg/mL
Escherichia coli 926415 MIC (Escherichia coli 926415): 0.125 µg/mL
Escherichia coli ATCC 25922 MIC [3]: 0.25 µg/mL
Klebsiella pneumoniae 968733 MIC [4]: 0.5 µg/mL
Klebsiella pneumoniae SSI #3010 MIC [5]: 0.25 µg/mL
Pseudomonas aeruginosa ATCC 27853 MIC [6]: 0.5 µg/mL
Hemolysis at 100 μg/mL [7]: 3%

CCCC[C@@H]1NC(=O)[C@@H]2CCCN2C(=O)[C@H]2CCCN2C(=O)[C@H](CO)NC(=O)[C@H](CO)NC(=O)[C@H](C(C)(C)C)NC(=O)[C@H](CCN)NC(=O)[C@H](Cc2c[nH]c3ccccc23)NC(=O)[C@@H](N)CSSC[C@@H](C(=O)N[C@@H](CCN)C(=O)N[C@H](CCN)C(=O)N[C@H]2CCNC(=O)[C@H]([C@@H](C)O)NC(=O)[C@H](CCN)NC(=O)[C@H](CCN)NC(=O)[C@H](CC(C)C)NC(=O)[C@@H](Cc3ccccc3)NC(=O)[C@H](CCN)NC2=O)NC(=O)[C@H](CCCN)NC(=O)[C@H](CCN)NC(=O)[C@H](Cc2ccc(O)cc2)NC(=O)[C@H](CO)NC1=O [Ex. 205] (H-CW[Dab][Tle]SS[dP]P[Nle]SY[Dab][Orn]C[Dab][dDab][Dab][Dab][dF]L[Dab][Dab]T; disulfide 1-14; lactam 17-C)
Acinetobacter baumannii 872842 MIC [1]: 0.5 µg/mL
Acinetobacter baumannii DSM 30008 MIC [2]: 2 µg/mL
Escherichia coli 926415 MIC (Escherichia coli 926415): 0.5 µg/mL
Escherichia coli ATCC 25922 MIC [3]: 0.25 µg/mL
Klebsiella pneumoniae 968733 MIC [4]: 2 µg/mL
Klebsiella pneumoniae SSI #3010 MIC [5]: 2 µg/mL
Pseudomonas aeruginosa ATCC 27853 MIC [6]: 0.25 µg/mL
Hemolysis at 100 μg/mL [7]: <1%

CCCC[C@@H]1NC(=O)[C@@H]2CCCN2C(=O)[C@H]2CCCN2C(=O)[C@H](CO)NC(=O)[C@H](Cc2ccc(O)cc2)NC(=O)[C@H](C(C)(C)C)NC(=O)[C@H](CCN)NC(=O)[C@H](Cc2c[nH]c3ccccc23)NC(=O)[C@@H](NC)CSSC[C@@H](C(=O)N[C@H](CCN)C(=O)N[C@H]2CCNC(=O)[C@H]([C@@H](C)O)NC(=O)[C@H](CCN)NC(=O)[C@H](CCN)NC(=O)[C@H](CC(C)C)NC(=O)[C@@H](CC(C)C)NC(=O)[C@H](CCN)NC2=O)NC(=O)[C@H](CCCN)NC(=O)[C@H](CCN)NC(=O)[C@H](Cc2ccc(O)cc2)NC(=O)[C@H](CO)NC1=O [Ex. 207] (H-[NMeC]W[Dab][Tle]YS[dP]P[Nle]SY[Dab][Orn]C[dDab][Dab][Dab][dL]L[Dab][Dab]T; disulfide 1-14; lactam 16-C)
Acinetobacter baumannii 872842 MIC [1]: 1 µg/mL
Acinetobacter baumannii DSM 30008 MIC [2]: 2 µg/mL
Escherichia coli 926415 MIC (Escherichia coli 926415): 0.25 µg/mL
Escherichia coli ATCC 25922 MIC [3]: 0.125 µg/mL
Klebsiella pneumoniae 968733 MIC [4]: 0.5 µg/mL
Klebsiella pneumoniae SSI #3010 MIC [5]: 0.125 µg/mL
Pseudomonas aeruginosa ATCC 27853 MIC [6]: 2 µg/mL
Hemolysis at 100 μg/mL [7]: 1%

CC(C)C[C@@H]1NC(=O)[C@@H](CC(C)C)NC(=O)[C@H](CCN)NC(=O)[C@@H](NC(=O)[C@@H](CCN)NC(=O)[C@@H]2CSSC(C)(C)[C@H](N)C(=O)N[C@@H](Cc3c[nH]c4ccccc34)C(=O)N[C@@H](CCN)C(=O)N[C@@H](C(C)C)C(=O)N[C@@H](CO)C(=O)N[C@@H](CO)C(=O)N3C[C@@H](O)C[C@@H]3C(=O)N3CCC[C@H]3C(=O)N[C@@H](CC(C)C)C(=O)N[C@@H](CO)C(=O)N[C@@H](Cc3ccc(O)cc3)C(=O)N[C@@H](CCN)C(=O)N[C@@H](CCCN)C(=O)N2)CCNC(=O)[C@H]([C@@H](C)O)NC(=O)[C@H](CCN)NC(=O)[C@H](CCN)NC1=O [Ex. 208] (H-[Pen]W[Dab]VSS[dHyp]PLSY[Dab][Orn]C[dDab][Dab][Dab][dL]L[Dab][Dab]T; disulfide 1-14; lactam 16-C)
Acinetobacter baumannii 872842 MIC [1]: 2 µg/mL
Acinetobacter baumannii DSM 30008 MIC [2]: 1 µg/mL
Escherichia coli 926415 MIC (Escherichia coli 926415): 0.5 µg/mL
Escherichia coli ATCC 25922 MIC [3]: 0.25 µg/mL
Klebsiella pneumoniae 968733 MIC [4]: 8 µg/mL
Klebsiella pneumoniae SSI #3010 MIC [5]: 1 µg/mL
Pseudomonas aeruginosa ATCC 27853 MIC [6]: 2 µg/mL
Hemolysis at 100 μg/mL [7]: <1%

CC(C)C[C@@H]1NC(=O)[C@@H](CC(C)C)NC(=O)[C@H](CCN)NC(=O)[C@@H](NC(=O)[C@@H](CCN)NC(=O)[C@@H]2CSSC[C@H](N)C(=O)N[C@@H](Cc3c[nH]c4ccccc34)C(=O)N[C@@H](CCN)C(=O)N[C@@H](C(C)C)C(=O)N[C@@H]([C@@H](C)O)C(=O)N[C@@H](Cc3ccc(O)cc3)C(=O)N3CCC[C@@H]3C(=O)N3CCC[C@H]3C(=O)N[C@@H](CC(C)C)C(=O)N[C@@H](CO)C(=O)N[C@@H](Cc3ccc(O)cc3)C(=O)N[C@@H](CCN)C(=O)N[C@@H](CCN)C(=O)N2)CCNC(=O)[C@H]([C@@H](C)O)NC(=O)[C@H](CCN)NC(=O)[C@H](CCN)NC1=O [Ex. 209] (H-CW[Dab]VTY[dP]PLSY[Dab][Dab]C[dDab][Dab][Dab][dL]L[Dab][Dab]T; disulfide 1-14; lactam 16-C)
Acinetobacter baumannii 872842 MIC [1]: 0.5 µg/mL
Acinetobacter baumannii DSM 30008 MIC [2]: 0.5 µg/mL
Escherichia coli 926415 MIC (Escherichia coli 926415): 0.25 µg/mL
Escherichia coli ATCC 25922 MIC [3]: 0.125 µg/mL
Klebsiella pneumoniae 968733 MIC [4]: 0.5 µg/mL
Klebsiella pneumoniae SSI #3010 MIC [5]: 0.25 µg/mL
Pseudomonas aeruginosa ATCC 27853 MIC [6]: 1 µg/mL
Hemolysis at 100 μg/mL [7]: 3%
